Assay results as given in patent US9328106B2, “Cyclic ether pyrazol-4-yl-heterocyclyl-carboxamide compounds and methods of use” (Genentech, Inc., priority 2012, dated 2016).
Like-named read-outs stand apart in the source and are kept apart here.

Tests used:
[1] = molecular target: PIM1 (Homo sapiens (Human), UniProt P11309); experiment: biochemical; assay type: biochemical; conditions: 20 pM PIM1, 1 μM FAM-peptide, 10 μM ATP, 90 minutes at room temperature; read-out: PIM1 LC3K (KI)
[2] = system: BaF3 parental cells; experiment: In vitro cell proliferation, BaF3 parental line + IL3; assay type: cell-based, murine; conditions: mIL-3, incubated overnight, CELL TITER GLO, read-out: Prolif BaF3 IL3 (IC50);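 note: BaF3 parental cells are murine IL-3 dependent pro-B cells grown with 2 ng/mL mIL-3, 384-well format, viability read by luminescence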
[3] = system: BaF3 PIM1 cells; experiment: In vitro cell proliferation, BaF3 transfected with PIM1; assay type: cell-based, murine;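 note: murine IL-3-dependent pro-B BaF3 cells transfected with PIM1, compound exposure overnight at 37 °C under 5% CO2, viability read as luminescence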
Description: (§1) BaF3 parental line was obtained from the DSMZ repository. […] Media for BaF3 parental line contained RPMI, 10% FBS, 2 mM L-Glutamine, 2 ng/mL mIL-3. Media for BaF3 PIM1 & 2 lines contained RPMI, 10% FBS, 2 mM L-Glutamine, 250 μg/mL. Media for MM1.S (multiple myeloma cells) line contained RPMI, 10% FBS, 2 mM L-Glutamine.
(§2) BaF3, a murine interleukin-3 dependent pro-B cell line, parental cells, BaF3 PIM1 cells, BaF3 PIM2 cells, and MM1.S (multiple myeloma) cells were seeded at 2 k/well, 5 k/well, 5 k/well, and 10 k/well respectively, in a 384-well plate, at 45 μL/well. Test compound was added at 5 μL/well. BaF3 cells (parental and transfected) were incubated overnight, while MM1.S cells were incubated for 72 hours at 37° C., 5% CO2. CELL TITER GLO® Reagent (Promega) was added at 50 μL/well, the plates were incubated for 30 minutes, and their luminescence read on an HT Analyst. IC50/EC50 values for the test compound were calculated.

[4] = system: MM1.S (multiple myeloma) cells; experiment: In vitro cell proliferation, MM1.S multiple myeloma cells; assay type: cell-based; conditions: MM1.S cells, 72 hours, CELL TITER GLO, read-out: Prolif MM1S ATP (EC50);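 note: cells cultured in RPMI with 10% FBS and 2 mM L-Glutamine, seeded in 384-well plates, exposed to compound, cell viability measured by luminescence after CellTiter-Glo addition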
Description: as §1, §2

[5] = Mus musculus, BaF3, BaF3 parental
[6] = Mus musculus, BaF3, read-out: Prolif BaF3 PIM1 (IC50), BaF3 PIM1 cells, incubated overnight, CELL TITER GLO

Sequence of PIM1 (P11309 whole entry): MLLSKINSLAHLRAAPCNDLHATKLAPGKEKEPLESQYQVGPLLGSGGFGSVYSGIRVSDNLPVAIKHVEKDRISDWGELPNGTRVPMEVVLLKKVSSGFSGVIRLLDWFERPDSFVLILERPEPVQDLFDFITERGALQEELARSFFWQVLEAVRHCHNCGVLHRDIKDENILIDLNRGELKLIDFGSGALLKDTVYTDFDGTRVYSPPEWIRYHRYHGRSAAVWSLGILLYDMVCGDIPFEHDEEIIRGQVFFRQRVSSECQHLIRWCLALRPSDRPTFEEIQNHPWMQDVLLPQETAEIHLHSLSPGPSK

SMILES	Ki [1] [nM]	IC50 [2, 5] [nM]	IC50 [3, 6] [nM]	EC50 ([4]; Homo sapiens, MM1.S, 72 h) [nM]	IC50 ([2]; BaF3 parental) [nM]	IC50 ([3]; read-out: Prolif BaF3 PIM1 (IC50), BaF3 PIM1 cells, incubated overnight, CELL TITER GLO) [nM]	EC50 [4] [nM]
CN(C)c1ccc(-c2nc(C(=O)Nc3cnn(C)c3[C@@H]3CC[C@@H](N)[C@H](F)CO3)cs2)cn1 [Example 385, N-[5-[(2S,5R,6S)-5-amino-6-fluoro-oxepan-2-yl]-1-methyl-pyrazol-4-yl]-2-[6-(dimethylamino)-3-pyridyl]thiazole-4-carboxamide]	0.2	12000	118	1200	–	–	–
Cn1ncc(NC(=O)c2csc(-c3c(F)cccc3F)n2)c1[C@@H]1CC[C@@H](N)[C@H](F)CO1 [Example 321, N-(5-((2S,5R,6S)-5-amino-6-fluorooxepan-2-yl)-1-methyl-1H-pyrazol-4-yl)-2-(2,6-difluorophenyl)thiazole-4-carboxamide]	0.0137	4400	50.6	385	–	–	–
Cn1ncc(NC(=O)c2csc(-c3c(F)ccc(S(C)(=O)=O)c3F)n2)c1[C@@H]1CC[C@@H](N)[C@H](F)CO1 [Example 360, N-[5-[(2S,5R,6S)-5-amino-6-fluoro-oxepan-2-yl]-1-methyl-pyrazol-4-yl]-2-(2,6-difluoro-3-methylsulfonyl-phenyl)thiazole-4-carboxamide]	1.85	16500	15200	9400	–	–	–
Cn1ncc(NC(=O)c2nc(-c3c(F)cccc3F)sc2N)c1C12CCC(O)C(CC1)O2 (single isomer, unassigned) [Example 110, 5-amino-2-(2,6-difluorophenyl)-N-[5-(2-hydroxy-8-oxabicyclo[3.2.1]octan-5-yl)-1-methyl-pyrazol-4-yl]thiazole-4-carboxamide]	0.017	–	–	–	9400	44.8	2400
C[C@H]1O[C@@H](c2c(NC(=O)c3csc(-c4c(F)cccc4F)n3)cnn2C)C[C@@H](N)[C@]1(C)O (single isomer, unassigned) [Example 341]	0.003	> 25000	96.8	6900	–	–	–
Cn1ncc(NC(=O)c2csc(-c3ccc(F)cc3F)n2)c1[C@@H]1CC[C@@H](N)[C@H](F)CO1 [Example 325, N-(5-((2S,5R,6S)-5-amino-6-fluorooxepan-2-yl)-1-methyl-1H-pyrazol-4-yl)-2-(2,4-difluorophenyl)thiazole-4-carboxamide]	0.05	6300	142	735	–	–	–
Cc1[nH]nc(-c2nc(C(=O)Nc3cnn(C)c3[C@@H]3CC[C@@H](N)[C@H](F)CO3)cs2)c1C [Example 372, N-(5-((2S,5R,6S)-5-amino-6-fluorooxepan-2-yl)-1-methyl-1H-pyrazol-4-yl)-2-(4,5-dimethyl-1H-pyrazol-3-yl)thiazole-4-carboxamide]	0.064	20500	602	1600	–	–	–
C[C@@H]1O[C@@H](c2c(NC(=O)c3csc(-c4c(F)cccc4F)n3)cnn2C)C[C@H](N)[C@@]1(C)O (single isomer, unassigned) [Example 342]	2.3	10000	12700	21600	–	–	–
Cn1ncc(NC(=O)c2csc(-c3c(F)ccc(C4CC4)c3F)n2)c1[C@@H]1CC[C@@H](N)[C@H](F)CO1 [Example 363, N-(5-((2S,5R,6S)-5-amino-6-fluorooxepan-2-yl)-1-methyl-1H-pyrazol-4-yl)-2-(3-cyclopropyl-2,6-difluorophenyl)thiazole-4-carboxamide]	0.034	4500	294	937	–	–	–
Cn1ncc(NC(=O)c2nc(-c3cccc(F)c3F)sc2N)c1[C@@H]1CC[C@@H](N)[C@H](F)CO1 [Example 324, 5-amino-N-(5-((2S,5R,6S)-5-amino-6-fluorooxepan-2-yl)-1-methyl-1H-pyrazol-4-yl)-2-(2,3-difluorophenyl)thiazole-4-carboxamide]	0.019	> 25000	45.3	116	–	–	–
Cc1cccc(-c2nc(C(=O)Nc3cnn(C)c3[C@@H]3CC[C@@H](N)[C@H](F)CO3)cs2)c1F [Example 361, N-[5-[(2S,5R,6S)-5-amino-6-fluoro-oxepan-2-yl]-1-methyl-pyrazol-4-yl]-2-(2-fluoro-3-methyl-phenyl)thiazole-4-carboxamide]	0.068	2800	250	452	–	–	–
Cn1ncc(NC(=O)c2csc(-c3c(F)cc(C4(F)COC4)cc3F)n2)c1[C@@H]1CC[C@@H](N)[C@H](F)CO1 [Example 340, N-(5-((2S,5R,6S)-5-amino-6-fluorooxepan-2-yl)-1-methyl-1H-pyrazol-4-yl)-2-(2,6-difluoro-4-(3-fluorooxetan-3-yl)phenyl)thiazole-4-carboxamide]	0.01	20700	51.7	> 6200	–	–	–
Cn1ncc(NC(=O)c2csc(-c3ccccc3F)n2)c1[C@@H]1CC[C@@H](N)[C@H](F)CO1 [Example 322, N-(5-((2S,5R,6S)-5-amino-6-fluorooxepan-2-yl)-1-methyl-1H-pyrazol-4-yl)-2-(2-fluorophenyl)thiazole-4-carboxamide]	0.072	6300	113	1500	–	–	–
CO[C@@H]1CO[C@H](c2c(NC(=O)c3csc(-c4ncccc4C)n3)cnn2C)CC[C@H]1N [Example 348, N-(5-((2S,5R,6S)-5-amino-6-methoxyoxepan-2-yl)-1-methyl-1H-pyrazol-4-yl)-2-(3-methylpyridin-2-yl)thiazole-4-carboxamide]	0.014	10500	359	1000	–	–	–
Cn1ncc(NC(=O)c2csc(-c3c(F)cc([C@H]4CCCO4)cc3F)n2)c1[C@@H]1CC[C@@H](N)[C@H](F)CO1 (single isomer, unassigned) [Example 380]	0.071	12200	37.2	1700	–	–	–
CC(C)C(=O)c1cc(F)c(-c2nc(C(=O)Nc3cnn(C)c3[C@@H]3CC[C@@H](N)[C@H](F)CO3)cs2)c(F)c1 [Example 367, N-(5-((2S,5R,6S)-5-amino-6-fluorooxepan-2-yl)-1-methyl-1H-pyrazol-4-yl)-2-(2,6-difluoro-4-isobutyrylphenyl)thiazole-4-carboxamide]	0.061	24000	245	5400	–	–	–
Cn1ncc(NC(=O)c2csc(-c3cc(=O)n(C)cc3F)n2)c1[C@@H]1CC[C@@H](N)[C@H](F)CO1 [Example 387, N-(5-((2S,5R,6S)-5-amino-6-fluorooxepan-2-yl)-1-methyl-1H-pyrazol-4-yl)-2-(5-fluoro-1-methyl-2-oxo-1,2-dihydropyridin-4-yl)thiazole-4-carboxamide]	0.954	8200	3200	2000	–	–	–
CO[C@@H]1CO[C@H](c2c(NC(=O)c3csc(-c4c(F)cccc4F)n3)cnn2C)CC[C@H]1N [Example 347, N-(5-((2S,5R,6S)-5-amino-6-methoxyoxepan-2-yl)-1-methyl-1H-pyrazol-4-yl)-2-(2,6-difluorophenyl)thiazole-4-carboxamide]	0.014	5000	157	3300	–	–	–
